Assays:
[1] = system: HCV replicon cells (Huh7); test: HCV replicon assay (HCV EC50 determination, luciferase readout); assay type: cell-based; settings: for inhibition at 250 µM: Concentration tested 250 micromolar
Protocol: Replicon cells were seeded in 96-well plates at a density of 8×10^3 cells per well in 100 μL of culture medium, excluding Geneticin. Compound was serially diluted in 100% DMSO and then added to the cells at a 1:200 dilution, achieving a final concentration of 0.5% DMSO and a total volume of 200 μL. Plates were incubated at 37° C. for 3 days, after which culture medium was removed and cells were lysed in lysis buffer provided by Promega's luciferase assay system. Following the manufacturer's instruction, 100 μL of luciferase substrate was added to the lysed cells and luciferase activity was measured in a TopCount luminometer.

[2] = target: HCV NS5b polymerase (Hepatitis C virus genotype 1b, UniProt Q9WMX2); test: NS5b polymerase assay (HCV IC50 determination); assay type: biochemical; settings: Concentration tested 200 micromolar
Protocol: Assay Protocol: NS5b polymerase assay (40 μL) was assembled by adding 28 μL polymerase mixture (final concentration: 50 mM Tris-HCl at pH 7.5, 10 mM KCL, 5 mM MgCl2, 1 mM DTT, 10 mM EDTA, 4 ng/μL of RNA template, and 75 nM HCV ? 21 NS5b polymerase) to assay plates followed by 4 μL of compound dilution. The polymerase and compound were pre-incubated at 35° C. for 10 minute before the addition of 8 μL of nucleotide substrate mixture (33P- ? -labeled competing nucleotide at KM and 0.5 mM of the remaining three nucleotides). The assay plates were covered and incubated at 35° C. for 90 min. Reactions were then filtered through 96-well DEAE-81 filter plates via vacuum. The filter plates were then washed under vacuum with multiple volumes of 0.125 M NaHPO4, water, and ethanol to remove unincorporated label. Plates were then counted on TopCount to assess the level of product synthesis over background controls. The IC50 value was determined using Prism fitting program.

SMILES	inhibition at 250 µM ([1]; Hepatitis C virus, Huh-7) [%]	also measured
Nc1nc2c(ncn2C2OC(OCP(=O)(O)O)CC2O)c(=O)[nH]1 (stereo not drawn) [Compound 5.2, [5-(2-Amino-6-oxo-1,6-dihydro-purin-9-yl)-4-hydroxy-tetrahydro-furan-2-yloxymethyl]-phosphonic acid]	27.2	–
NC(=O)c1ncn(C2OC(OCP(=O)(O)O)CC2O)n1 (stereo not drawn) [Compound 8.3, [5-(3-Carbamoyl-[1,2,4]triazol-1-yl)-4-hydroxy-tetrahydro-furan-2-yloxymethyl]-phosphonic acid]	18.5	–
NC(=O)c1ncn([C@@H]2O[C@H](OCP(=O)(O)OP(=O)(O)OP(=O)(O)O)C[C@H]2O)n1 [Compound 9.4, Diphosphate of [5-(3-Carbamoyl-[1,2,4]triazol-1-yl)-4-hydroxy-tetrahydro-furan-2-yloxymethyl]-phosphonic acid]	–	inhibition at 200 µM [2]: 65.5%
CCCCOC(=O)[C@H](C)NP(=O)(CO[C@@H]1C[C@@H](O)[C@H](n2cnc(C(N)=O)n2)O1)N[C@@H](C)C(=O)OCCCC [Compound 9.5, Bis (Alanine-n-butyl ester) phosphonamidate pro drug of [5-(3-carbamoyl-[1,2,4]triazol-1-yl)-4-hydroxy-tetrahydro-furan-2-yloxymethyl]-phosphonic acid]	–	inhibition at 50 µM ([1]; Hepatitis C virus, Huh-7, Concentration tested 50 micromolar): 1.1%
C[C@]1(OCP(=O)(O)O)O[C@@H](n2ccc(=O)[nH]c2=O)[C@H](O)[C@@H]1O [Compound 32.4, ((2R,3S,4R,5R)-5-(2,4-dioxo-3,4-dihydropyrimidin-1(2H)-yl)-3,4-dihydroxy-2-methyl-tetrahydrofuran-2-yloxy)methylphosphonic acid]	14.8	–
CCCCOC(=O)[C@H](C)NP(=O)(CO[C@H]1O[C@@H](n2ccc(N)cc2=O)[C@H](O)[C@@H]1O)N[C@@H](C)C(=O)OCCCC [Compound 32.5]	–	% Inhibition of replicon ([1]; Concentration tested 500 micromolar): 37.5%
